# Data from patent publication US12344600B2, “c-Myc mRNA translation modulators and uses thereof in the treatment of cancer” (Anima Biotech Inc., priority 2022, dated 2025).
# System: c-Myc
# Experiment: c-Myc immunofluorescence assay
# Type: cell-based, human
# Details: A549 cells, 24 hours, anti-c-Myc immunofluorescence
# In short: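 Read-out is imaged c-Myc immunofluorescence, nucleus-segmented, in A549 lung carcinoma cells exposed to compound dose series for 24 h after 48 h growth. Fixation 4% paraformaldehyde, Triton permeabilization, antibody staining at room temperature; EC50 from logistic fit of signal versus concentration.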
row,Compound,Myc Efficacy (−LogEC50)
1,"COc1ccc(-c2noc(C3CCC(C(=O)NCC4CCN(CCO)C4)CC3)n2)cc1 (stereo not shown) [Compound 197, (1r,4r)-N-((1-(2-hydroxyethyl)pyrrolidin-3-yl)methyl)-4-(3-(4-methoxyphenyl)-1,2,4-oxadiazol-5-yl)cyclohexane-1-carboxamide]",+ (+ >3 and <5)
2,"Cc1ccc(CN2CCC(CNC(=O)C3CCN(c4nc(-c5cccc(C#N)c5)no4)CC3)C2)cc1 (stereo not shown) [Compound 198, 1-(3-(3-cyanophenyl)-1,2,4-oxadiazol-5-yl)-N-((1-(4-methylbenzyl)pyrrolidin-3-yl)methyl)piperidine-4-carboxamide]",++ (++ ≥5 and <6)
3,"Cc1ccc(CN2CCC(CNC(=O)C3CCN(c4nc(-c5cccc(O)c5)no4)CC3)C2)cc1 (stereo not shown) [Compound 199, 1-(3-(3-hydroxyphenyl)-1,2,4-oxadiazol-5-yl)-N-((1-(4-methylbenzyl)pyrrolidin-3-yl)methyl)piperidine-4-carboxamide]",+ (+ >3 and <5)
4,"O=C(NCc1cccnc1)C1CCN(c2nc(-c3ccncc3)no2)CC1 [Compound 200, N-(pyridin-3-ylmethyl)-1-(3-(pyridin-4-yl)-1,2,4-oxadiazol-5-yl)piperidine-4-carboxamide]",+ (+ >3 and <5)
5,"COc1ccc(-c2coc(N3CCC(C(=O)NCc4cccnc4)CC3)n2)cc1 [Compound 201, 1-(4-(4-methoxyphenyl)oxazol-2-yl)-N-(pyridin-3-ylmethyl)piperidine-4-carboxamide]",+ (+ >3 and <5)
6,"O=C(C1CCN(c2nc(-c3ccncc3)no2)CC1)N1CCOCC1 [Compound 202, morpholino(1-(3-(pyridin-4-yl)-1,2,4-oxadiazol-5-yl)piperidin-4-yl)methanone]",+ (+ >3 and <5)
7,"COc1ccc(-c2coc(N3CCC(C(=O)N4CCOCC4)CC3)n2)cc1 [Compound 203, (1-(4-(4-methoxyphenyl)oxazol-2-yl)piperidin-4-yl)(morpholino)methanone]",+ (+ >3 and <5)
8,"COc1ccc(-c2noc(N3CCC(C(=O)N4CCN(C)CC4)CC3)n2)cc1 [Compound 204, (1-(3-(4-methoxyphenyl)-1,2,4-oxadiazol-5-yl)piperidin-4-yl)(4-methylpiperazin-1-yl)methanone]",+ (+ >3 and <5)
9,"COc1ccc(-c2noc(N3CCC(C(=O)N4CCN(c5ccccc5)CC4)CC3)n2)cc1 [Compound 205, (1-(3-(4-methoxyphenyl)-1,2,4-oxadiazol-5-yl)piperidin-4-yl)(4-phenylpiperazin-1-yl)methanone]",+ (+ >3 and <5)
10,"COc1ccc(-c2noc(N3CCN(C(=O)NCC4CCN(C)C4)CC3)n2)cc1 (stereo not shown) [Compound 206, 4-(3-(4-methoxyphenyl)-1,2,4-oxadiazol-5-yl)-N-((1-methylpyrrolidin-3-yl)methyl)piperazine-1-carboxamide]",+ (+ >3 and <5)
11,"COc1ccc(-c2noc(N3CCN(C(=O)NCCCN4CCC(Cc5ccccc5)CC4)CC3)n2)cc1 [Compound 207, N-(3-(4-benzylpiperidin-1-yl)propyl)-4-(3-(4-methoxyphenyl)-1,2,4-oxadiazol-5-yl)piperazine-1-carboxamide]",+++ (+++ ≥6)
12,"COc1ccc(-c2noc(N3CCN(C(=O)NCCCN4CCC(C)CC4)CC3)n2)cc1 [Compound 208, 4-(3-(4-methoxyphenyl)-1,2,4-oxadiazol-5-yl)-N-(3-(4-methylpiperidin-1-yl)propyl)piperazine-1-carboxamide]",++ (++ ≥5 and <6)
13,"COc1ccc(-c2noc(N3CCN(C(=O)Nc4ccccc4)CC3)n2)cc1 [Compound 209, 4-(3-(4-methoxyphenyl)-1,2,4-oxadiazol-5-yl)-N-phenylpiperazine-1-carboxamide]",+ (+ >3 and <5)
14,"COc1ccc(-c2noc(N3CCC(C(=O)Nc4ccc(C)cc4)CC3)n2)cc1 [Compound 210, 1-(3-(4-methoxyphenyl)-1,2,4-oxadiazol-5-yl)-N-(p-tolyl)piperidine-4-carboxamide]",+ (+ >3 and <5)
15,"COc1ccc(-c2noc(N3CCC(C(=O)Nc4cccc(C)c4)CC3)n2)cc1 [Compound 211, 1-(3-(4-methoxyphenyl)-1,2,4-oxadiazol-5-yl)-N-(m-tolyl)piperidine-4-carboxamide]",+ (+ >3 and <5)
16,"COc1ccc(-c2noc(N3CCC(C(=O)Nc4cccc(Cl)c4)CC3)n2)cc1 [Compound 212, N-(3-chlorophenyl)-1-(3-(4-methoxyphenyl)-1,2,4-oxadiazol-5-yl)piperidine-4-carboxamide]",+ (+ >3 and <5)
17,"COc1ccc(-c2noc(N3CCC(C(=O)Nc4ccccc4C)CC3)n2)cc1 [Compound 213, 1-(3-(4-methoxyphenyl)-1,2,4-oxadiazol-5-yl)-N-(o-tolyl)piperidine-4-carboxamide]",+ (+ >3 and <5)
18,"COc1ccc(-c2noc(N3CCC(c4nc5ccccc5[nH]4)CC3)n2)cc1 [Compound 214, 5-(4-(1H-benzo[d]imidazol-2-yl)piperidin-1-yl)-3-(4-methoxyphenyl)-1,2,4-oxadiazole]",+ (+ >3 and <5)
19,"COc1ccc(-c2noc(C3CCC(C(=O)NCC4CCN(CCO)C4)CC3)n2)cc1 (stereo not shown) [Compound 215, (1s,4s)-N-((1-(2-hydroxyethyl)pyrrolidin-3-yl)methyl)-4-(3-(4-methoxyphenyl)-1,2,4-oxadiazol-5-yl)cyclohexane-1-carboxamide]",+ (+ >3 and <5)
20,"COc1ccc(-c2noc(N3CCN(C(=O)N4CCC(Oc5ccccc5)CC4)CC3)n2)cc1 [Compound 216, (4-(3-(4-methoxyphenyl)-1,2,4-oxadiazol-5-yl)piperazin-1-yl)(4-phenoxypiperidin-1-yl)methanone]",+ (+ >3 and <5)
21,"COc1ccc(-c2noc(N3CCC(C(=O)NCC4CCN(C)CC4)CC3)n2)cc1 [Compound 217, 1-(3-(4-methoxyphenyl)-1,2,4-oxadiazol-5-yl)-N-((1-methylpiperidin-4-yl)methyl)piperidine-4-carboxamide]",− (− ≤3)
22,"COc1ccc(-c2noc(N3CCC(C(=O)NC4CCN(C)CC4)CC3)n2)cc1 [Compound 218, 1-(3-(4-methoxyphenyl)-1,2,4-oxadiazol-5-yl)-N-(1-methylpiperidin-4-yl)piperidine-4-carboxamide]",− (− ≤3)
23,"COc1ccc(-c2noc(N3CCC(C(=O)NCC4CCN(C)C4)CC3)n2)cc1 (stereo not shown) [Compound 219, 1-(3-(4-methoxyphenyl)-1,2,4-oxadiazol-5-yl)-N-((1-methylpyrrolidin-3-yl)methyl)piperidine-4-carboxamide]",− (− ≤3)
24,"COc1ccc(-c2noc(N3CCC(C(=O)NCC4CCN(CC5CC5)C4)CC3)n2)cc1 (stereo not shown) [Compound 220, N-((1-(cyclopropylmethyl)pyrrolidin-3-yl)methyl)-1-(3-(4-methoxyphenyl)-1,2,4-oxadiazol-5-yl)piperidine-4-carboxamide]",+ (+ >3 and <5)
25,"COc1ccc(-c2noc(N3CCN(C(=O)NCC4CCN(CC5CC5)C4)CC3)n2)cc1 (stereo not shown) [Compound 221, N-((1-(cyclopropylmethyl)pyrrolidin-3-yl)methyl)-4-(3-(4-methoxyphenyl)-1,2,4-oxadiazol-5-yl)piperazine-1-carboxamide]",+ (+ >3 and <5)
